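How tested: cells in 96-well plates exposed to compound for 48 hours at five concentrations. TGI marks complete inhibition of growth.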
How the values were obtained:
Assay in all cases: inhibition of tumour cell growth, NCI panel, 48 h
[1] = test system: 786-0 renal
[2] = test system: A549 NSCLC
[3] = test system: ACHN renal
[4] = test system: BT-549 breast
[5] = test system: CAKI-1 renal
[6] = test system: CCRF-CEM leukemia
[7] = test system: COLO 205 colon
[8] = test system: DU-145 prostate
[9] = test system: EKVX NSCLC
[10] = test system: HCC-2998 colon
[11] = test system: HCT-116 colon
[12] = test system: HCT-15 colon
[13] = test system: HL-60(TB) leukemia
[14] = test system: HOP-62 NSCLC
[15] = test system: HOP-92 NSCLC
[16] = test system: HS 578T breast
[17] = test system: HT29 colon
[18] = test system: IGROV1 ovarian
[19] = test system: K-562 leukemia
[20] = test system: KM12 colon
[21] = test system: LOX IMVI melanoma
[22] = test system: M14 melanoma
[23] = test system: MALME-3M melanoma
[24] = test system: MCF7 breast
[25] = test system: MDA-MB-231 breast
[26] = test system: MDA-MB-435
[27] = test system: MDA-N
[28] = test system: MOLT-4 leukemia
[29] = test system: NCI-H226 lung
[30] = test system: NCI-H23 lung
[31] = test system: NCI-H460 lung
[32] = test system: NCI-H522 lung
[33] = test system: NCI/ADR-RES ovarian
[34] = test system: OVCAR-3 ovarian
[35] = test system: OVCAR-4 ovarian
[36] = test system: OVCAR-8 ovarian
[37] = test system: PC-3 prostate
[38] = test system: RPMI-8226 leukemia
[39] = test system: RXF 393 renal
[40] = test system: SF-268 CNS
[41] = test system: SF-295 CNS
[42] = test system: SF-539 CNS
[43] = test system: SK-MEL-2 melanoma
[44] = test system: SK-MEL-28 melanoma
[45] = test system: SK-MEL-5 melanoma
[46] = test system: SK-OV-3 ovarian
[47] = test system: SN12C renal
[48] = test system: SNB-19 CNS
[49] = test system: SNB-75 CNS
[50] = test system: SR leukemia
[51] = test system: SW-620 colon
[52] = test system: T-47D breast
[53] = test system: TK-10 renal
[54] = test system: U251 CNS
[55] = test system: UACC-257 melanoma
[56] = test system: UACC-62 melanoma
[57] = test system: UO-31 renal
[58] = test system: OVCAR-5 ovarian

`Cc1ccc(-c2nc3ccc([N+](=O)[O-])cc3[nH]2)cc1` gave a TGI [1] of over 100 µM, a TGI [2] of over 100 µM and a TGI [3] of over 100 µM. For the same compound, the TGI [4] was over 100 µM, the TGI [5] was over 100 µM and the TGI [6] was over 100 µM. For the same compound, the TGI [7] was over 100 µM, the TGI [8] was over 100 µM and the TGI [9] was over 100 µM. It also gave a TGI [10] of over 100 µM, a TGI [11] of over 100 µM and a TGI [12] of over 100 µM. It also gave a TGI [13] of over 100 µM, a TGI [14] of over 100 µM and a TGI [15] of over 100 µM. For the same compound, the TGI [16] was over 100 µM, the TGI [17] was over 100 µM and the TGI [18] was over 100 µM. The TGI [19] was over 100 µM, the TGI [20] was over 100 µM and the TGI [21] was over 100 µM. It also gave a TGI [22] of over 100 µM, a TGI [23] of over 100 µM and a TGI [24] of over 100 µM. The TGI [25] was over 100 µM, the TGI [26] was over 100 µM and the TGI [27] was over 100 µM. For the same compound, the TGI [28] was over 100 µM, the TGI [29] was over 100 µM and the TGI [30] was over 100 µM. The TGI [31] was over 100 µM, the TGI [32] was over 100 µM and the TGI [33] was over 100 µM. The TGI [34] was over 100 µM, the TGI [35] was over 100 µM and the TGI [36] was over 100 µM. The TGI [37] was over 100 µM, the TGI [38] was over 100 µM and the TGI [39] was over 100 µM. The TGI [40] was over 100 µM, the TGI [41] was over 100 µM and the TGI [42] was over 100 µM. It also gave a TGI [43] of over 100 µM, a TGI [44] of over 100 µM and a TGI [45] of over 100 µM. It also gave a TGI [46] of over 100 µM, a TGI [47] of over 100 µM and a TGI [48] of over 100 µM. For the same compound, the TGI [49] was over 100 µM, the TGI [50] was over 100 µM and the TGI [51] was over 100 µM. It also gave a TGI [52] of over 100 µM, a TGI [53] of over 100 µM and a TGI [54] of over 100 µM. The TGI [55] was over 100 µM, the TGI [56] was over 100 µM and the TGI [57] was over 100 µM.
`CN1CCN(CN2C(=O)C3C4C=CC(C3C2=O)C2C(=O)N(CN3CCN(C)CC3)C(=O)C42)CC1` (stereo not drawn) was tested, and the TGI [1] was 97.7 µM, the TGI [3] was over 100 µM and the TGI [4] was over 100 µM. The TGI [5] was over 100 µM, the TGI [6] was over 100 µM and the TGI [7] was over 100 µM. It also gave a TGI [8] of over 31.6 µM, a TGI [9] of over 100 µM and a TGI [10] of over 100 µM. It also gave a TGI [11] of over 62.1 µM, a TGI [12] of over 100 µM and a TGI [13] of 61.6 µM. For the same compound, the TGI [14] was over 87.3 µM, the TGI [15] was over 100 µM and the TGI [16] was over 100 µM. It also gave a TGI [17] of 49.3 µM, a TGI [18] of over 100 µM and a TGI [19] of over 100 µM. The TGI [20] was over 100 µM, the TGI [21] was over 63 µM and the TGI [22] was over 80.6 µM. For the same compound, the TGI [23] was over 92 µM, the TGI [24] was 72.8 µM and the TGI [25] was over 100 µM. The TGI [26] was over 100 µM, the TGI [27] was over 100 µM and the TGI [28] was 97.1 µM. It also gave a TGI [29] of over 100 µM, a TGI [30] of over 78.4 µM and a TGI [31] of over 93.6 µM. It also gave a TGI [32] of over 59.5 µM, a TGI [33] of over 100 µM and a TGI [34] of over 100 µM. The TGI [35] was over 100 µM, the TGI [58] was over 100 µM and the TGI [36] was over 100 µM. It also gave a TGI [37] of over 100 µM, a TGI [38] of 51.4 µM and a TGI [39] of over 70.2 µM. For the same compound, the TGI [40] was over 100 µM, the TGI [41] was over 100 µM and the TGI [42] was over 83.3 µM. It also gave a TGI [43] of over 100 µM, a TGI [44] of over 58 µM and a TGI [46] of over 100 µM. It also gave a TGI [47] of over 100 µM, a TGI [48] of over 100 µM and a TGI [49] of over 100 µM. The TGI [50] was over 100 µM, the TGI [51] was 7.58 µM and the TGI [52] was over 100 µM. For the same compound, the TGI [53] was over 100 µM, the TGI [54] was over 100 µM and the TGI [55] was over 100 µM. For the same compound, the TGI [56] was over 56.9 µM and the TGI [57] was over 100 µM.

Reference: PubChem BioAssay (NCI)
